Here are results for 23 compounds from patent US10231986B2, “Amino acid phosphoramidate pronucleotides of 2′-cyano, azido and amino nucleosides for the treatment of HCV” (Centre National De La Recherche Scientifique, priority 2013, dated 2019).

Where two headings read alike, the source gives them in different places.

A short description of data set [1]: Cytotoxicity evaluation, CellTiter-Blue Cell Viability Assay. The conditions noted are these: human.
For data set [2], the system named is HCV genotype 1b replicon in Huh-7-derived cell line (Zluc). The experiment in a line: HCV replicon assay (luciferase reporter). It counts as cell-based. As to the method:
Huh-7-derived cell line (Zluc) that harbors an HCV genotype 1b replicon and a luciferase reporter gene was grown in Dulbecco's Modified Eagle Medium (DMEM) supplemented with 10% fetal bovine serum, 2 mM GlutaMAX, 1% MEM nonessential amino acids, 100 IU/mL penicillin, 100 μg/mL streptomycin, and 0.5 mg/mL Geneticin® (G418). For dose response testing the cells were seeded in 96-well plates at 7.5×10^3 cells per well in a volume of 50 μL, and incubated at 37° C./5% CO2. Drug solutions were made up freshly in Huh-7 media as 2× stocks. Ten additional 5-fold dilutions were prepared from these stocks in DMEM without G418. At least three hours after Zluc cells were seeded, drug treatment was initiated by adding 50 μL of drug dilutions to the plates in duplicate. Final concentrations of drug ranged from 100 μM to […]. Cells were then incubated at 37° C./5% CO2. Alternatively, compounds were tested at two concentrations (1 μM and 10 μM). […] For this, media was removed from the plates via gentle tapping. Fifty microliters of ONE-glo luciferase assay reagent was added to each well. The plates were shaken gently for 3 min at room temperature and luminescence was measured on a Victor^3 V 1420 multilabel counter (Perkin Elmer) with a 1 second read time using a 700 nm cut-off filter. The EC50 values were calculated from dose response curves from the resulting best-fit equations determined by Microsoft Excel and XLfit 4.1 software. When screening at two fixed concentrations, the results were expressed as % inhibition at 1 μM and 10 μM.
(A replicon is a self-replicating genome or part of one, used to study replication in cells.)

Data set [3] has as its target T1, wild-type HCV genotype 1b NS5B protein (recombinant HCV polymerase) (Hepatitis C virus genotype 1b, UniProt Q9WMX2).
T1 construct: approximately 65 kDa HCV genotype 1b NS5B protein were used to generate recombinant HCV polymerases; made in house
The experiment in a line: HCV polymerase enzyme assay, wild-type. It counts as biochemical. An excerpt:
(§1) Test compounds in the form of nucleoside triphosphates were examined for inhibitory activity against purified HCV polymerase in a standard assay. Bacterial expression constructs encoding the approximately 65 kDa HCV genotype 1b NS5B protein were used to generate recombinant HCV polymerases (with a deletion of the 21 carboxy terminal amino acids). Both the wild-type genotype 1b protein and protein containing the S282T mutation were expressed and purified for use in the enzymatic activity assay.
(§2) The enzymatic activity assay measured the inhibitory effect of increasing concentrations of test compound on the incorporation of α-[^33P]-labeled nucleotide into trichloroacetic acid-precipitable material. Recombinant polymerase and synthetic RNA template were combined in reaction buffer containing ribonucleoside triphosphates, α-[^33P]-labeled nucleotide and eight concentrations of test compound in three-fold dilutions. Reactions were incubated for two hours at 30° C.
(§3) Reactions were terminated by the addition of ice-cold trichloroacetic acid and sodium pyrophosphate to promote precipitation of newly-synthesized ribonucleic acid. Precipitable material from the reactions was collected by filtration onto 96-well filter plates, washed extensively with water, and quantified by liquid scintillation.
(§4) The inhibitory activity of test compounds was determined by fitting results to dose-response curves using XLfit software.

Data set [4] deals with T2, HCV genotype 1b NS5B protein containing the S282T mutation (Hepatitis C virus genotype 1b, UniProt Q9WMX2, S2701T).
T2 construct: approximately 65 kDa HCV genotype 1b NS5B protein were used to generate recombinant HCV polymerases; made in house
The data set is described as follows: HCV polymerase enzyme assay, S282T mutant. The data set is classed as biochemical.
Text: as §1, §2, §3, §4

The next data set concerns Zluc cells. The data set is described as follows: Cytotoxicity evaluation, CellTiter-Blue Cell Viability Assay. To be noted: read-out: HCV Replicon CC50; Zluc cells, CellTiter-Blue. (In general: The colour change of resazurin is a common sign of viable cells or microbes.)
Where [5] appears, read: Hepatitis C virus, 72 h, Zluc cells, genotype 1b replicon, 72 hours of incubation, read-out: HCV Replicon EC50.
Where [6] appears, read: Zluc cells, genotype 1b replicon, 72 hours of incubation, read-out: HCV Replicon EC50.
The mark [7] stands for this setting: Hepatitis C virus, 72 h, read-out: HCV Replicon EC50, Zluc cells, genotype 1b replicon, 72 hours of incubation.
The mark [8] stands for this setting: Zluc cells (HCV replicon cells).

The term CC50 denotes the concentration giving 50% cytotoxicity. Broadly, the EC50 is the midpoint of the concentration-response curve. In data set [1], `CC(C)OC(=O)[C@@H](C)N[P@@](=O)(OC[C@H]1O[C@@H](n2ccc(N)nc2=O)[C@](C)(C#N)[C@@H]1O)Oc1ccccc1` [Compound 1a] yielded a CC50 at 72 h above 50 µM. Moreover, the EC50 in data set [2] (setting [5]) is above 10 µM. The IC50 is the concentration that gives 50% inhibition. `C[C@@]1(N=[N+]=[N-])[C@H](O)[C@@H](COP(=O)(O)OP(=O)(O)OP(=O)(O)O)O[C@H]1n1ccc(=O)[nH]c1=O` [Compound 202]: the IC50 was 0.25 to 1 µM in data set [3] and above 10 µM in data set [4]. Take `CC(C)OC(=O)[C@H](C)NP(=O)(OC[C@H]1O[C@@H](n2ccc(=O)[nH]c2=O)[C@H](N)[C@@H]1O)Oc1ccccc1` (single isomer, unassigned) [Compound 526 Diastereomer 1]: the CC50 at 72 h in data set [1] was above 50 µM. In addition, the EC50 in data set [2] (setting [5]) is above 10 µM. On the same counts, the results for `CC(C)OC(=O)[C@H](C)NP(=O)(OC[C@H]1O[C@@H](n2ccc(=O)[nH]c2=O)[C@](C)(N=[N+]=[N-])[C@@H]1O)Oc1ccccc1` (single isomer, unassigned) [Reference Compound A18 Diastereomer 1, reference compound] are above 50 µM and above 10 µM. Turning to `Nc1ccn([C@@H]2O[C@H](COP(=O)(O)OP(=O)(O)OP(=O)(O)O)[C@@H](O)[C@H]2N)c(=O)n1` [Compound 207], the IC50 in data set [3] lay within 0.25 to 1 µM. As to `CC1(C#N)C(O)C(CO)OC1n1ccc(N)nc1=O` (stereo not shown) [Reference Compound A9b, reference compound], the CC50 in the data set on Zluc cells is above 50 µM. Moreover, in data set [2] (setting [6]), the EC50 lay within 1 to 10 µM. On the same counts, the results for `CC(C)OC(=O)[C@H](C)NP(=O)(OC[C@H]1O[C@@H](n2ccc(=O)[nH]c2=O)[C@H](N)[C@@H]1O)Oc1ccccc1` (single isomer, unassigned) [Compound 526 Diastereomer 2] are above 50 µM and above 10 µM. Consider `CC(C)OC(=O)[C@H](C)NP(=O)(OC[C@H]1O[C@@H](n2ccc(N)nc2=O)[C@H](N=[N+]=[N-])[C@@H]1O)Oc1ccccc1` (single isomer, unassigned) [Compound 530 Diastereomer 1], for which, in data set [1], the CC50 at 72 h is above 50 µM. In addition, the concentration giving a half-maximal response (EC50) in data set [2] (setting [7]) is above 10 µM. `C[C@@]1(N)[C@H](O)[C@@H](COP(=O)(O)OP(=O)(O)OP(=O)(O)O)O[C@H]1n1cnc2c(N)ncnc21` [Compound 208]: the IC50 was 1 to 10 µM in data set [3] and above 10 µM in data set [4]. In turn, `CC(C)OC(=O)[C@H](C)NP(=O)(OC[C@H]1O[C@@H](n2ccc(N)nc2=O)[C@H](N)[C@@H]1O)Oc1ccccc1` (single isomer, unassigned) [Compound 531 Diastereomer 1] returned a CC50 at 72 h in data set [1] above 50 µM. The EC50 in data set [2] (setting [7]) is above 10 µM.

For `C[C@@]1(N)[C@H](O)[C@@H](COP(=O)(O)OP(=O)(O)OP(=O)(O)O)O[C@H]1n1ccc(=O)[nH]c1=O` [Compound 203], the IC50 in data set [3] is 1 to 10 µM; in data set [4], above 10 µM. `CC(C)OC(=O)[C@H](C)NP(=O)(OC[C@H]1O[C@@H](n2ccc(=O)[nH]c2=O)[C@H](N=[N+]=[N-])[C@@H]1O)Oc1ccccc1` (single isomer, unassigned) [Compound 528 Diastereomer 1] displayed a CC50 at 72 h in data set [1] above 50 µM. The EC50 in data set [2] (setting [5]) is above 10 µM. `CC(C)OC(=O)[C@H](C)NP(=O)(OC[C@H]1O[C@@H](n2ccc(=O)[nH]c2=O)[C@](C)(N)[C@@H]1O)Oc1ccccc1` (single isomer, unassigned) [Reference Compound A19 Diastereomer 1, reference compound]: in data set [1], the CC50 at 72 h is above 50 µM. Further, in data set [2] (setting [6]), the concentration for a half-maximal effect (EC50) was above 10 µM. With `C[C@@]1(C#N)[C@H](O)[C@@H](COP(=O)(O)OP(=O)(O)OP(=O)(O)O)O[C@H]1n1ccc(N)nc1=O` [Compound 205], the IC50 in data set [3] fell in the range of 0.25 to 1 µM. For `C[C@@]1(C#N)[C@H](O)[C@@H](COP(=O)(O)OP(=O)(O)OP(=O)(O)O)O[C@H]1n1ccc(=O)[nH]c1=O` [Compound 204], the half-maximal inhibitory concentration (IC50) in data set [3] is below 0.25 µM; in data set [4] it was 1 to 10 µM. As for `CC(C)OC(=O)[C@H](C)NP(=O)(OC[C@H]1O[C@@H](n2ccc(=O)[nH]c2=O)[C@H](N=[N+]=[N-])[C@@H]1O)Oc1ccccc1` (single isomer, unassigned) [Compound 528 Diastereomer 2], in the data set with Zluc cells, the CC50 was above 50 µM. Also, the EC50 in data set [2] (setting [6]) was above 10 µM.

In turn, `CC(C)OC(=O)[C@H](C)NP(=O)(OC[C@H]1O[C@@H](n2ccc(N)nc2=O)[C@H](N=[N+]=[N-])[C@@H]1O)Oc1ccccc1` (mixture of isomers) [Compound 530 Diastereomer Mix] gave a CC50 at 72 h in data set [1] above 50 µM. For the same compound, the EC50 in data set [2] (setting [7]) was above 10 µM.

Regarding `C[C@]1(N=[N+]=[N-])C(n2cnc3c(N)ncnc32)O[C@H](CO)[C@H]1O` (stereo partly shown) [Reference Compound 101, reference compound], in data set [1] (setting [8]), the CC50 at 72 h was above 50 µM. In data set [2] (setting [5]), the 50% effective concentration (EC50) was above 10 µM. With `C[C@@]1(N)[C@H](O)[C@@H](COP(=O)(O)OP(=O)(O)OP(=O)(O)O)O[C@H]1n1ccc(N)nc1=O` [Compound 206], the IC50 in data set [3] lay within 1 to 10 µM.

On to `CC(C)OC(=O)[C@H](C)NP(=O)(OC[C@H]1O[C@@H](n2ccc(=O)[nH]c2=O)[C@](C)(N)[C@@H]1O)Oc1ccccc1` (single isomer, unassigned) [Reference Compound A19 Diastereomer 2, reference compound], for which, in the data set on Zluc cells, the CC50 is above 50 µM. For the same compound, the EC50 in data set [2] (setting [6]) is 1 to 10 µM. As to `C[C@@]1(N=[N+]=[N-])[C@H](O)[C@@H](COP(=O)(O)OP(=O)(O)OP(=O)(O)O)O[C@H]1n1cnc2c(N)ncnc21` [Compound 201], the 50% inhibitory concentration (IC50) is 0.25 to 1 µM in data set [3] and above 10 µM in data set [4].

Compound `C[C@@]1(N)[C@H](O)[C@@H](CO)O[C@H]1n1ccc(=O)[nH]c1=O` [Reference Compound 103, reference compound] yielded a CC50 at 72 h in data set [1] (setting [8]) above 50 µM. Besides, the EC50 in data set [2] (setting [5]) is above 10 µM. On the same counts, the results for `C[C@@]1(N=[N+]=[N-])[C@H](O)[C@@H](CO)O[C@H]1n1ccc(=O)[nH]c1=O` [Reference Compound 102, reference compound] are above 50 µM and above 10 µM.
